Reference: patent publication US11021457B2, “Class of isoindolone-imide ring-1,3-dione-2-ene compounds, composition and use thereof” (WIGEN BIOMEDICINE TECHNOLOGY (SHANGHAI) CO., LTD., priority 2017, dated 2021)

Tests used:
Assay type in all cases: cell-based
Settings in all cases: compound concentration 50 μM, 72 hours
[1] = system: SU-DHL6; test: Inhibition of tumor cell proliferation, CellTiter-Glo, SU-DHL6
Method: (§1) For various cell lines, the corresponding complete medium was used, and culture was carried out in an incubator at 37° C. with 5% CO2. The cells were counted, and inoculated into a 96-well plate at 2000-10000 cells/100 μl per well according to the cell volume and growth rate. The suspended cells were treated immediately, and the adherent cells were treated after adherence. The CellTiter-Glo method was used to detect the changes in cell viability 72 hours after the administration, and the cell survival rate at different concentrations was calculated by a formula: Survival rate (%)=(RLU of treatment well−RLU of blank well)/(RLU of control well−RLU of blank well)×100.
(§2) Method for expressing the inhibitory activity of the compounds against the proliferation of tumor cells: Evaluation was made based on the cell survival rate at a compound concentration of 50 μM. 60≤survival rate (%)<90 is considered to have low inhibitory activity against the proliferation of tumor cells (+); 30<survival rate (%)≤60 is considered to have moderate inhibitory activity against the proliferation of tumor cells (++); and survival rate (%)≤30 is considered to have high inhibitory activity against the proliferation of tumor cells (+++).

[2] = system: RPMI-8226; test: Inhibition of tumor cell proliferation, CellTiter-Glo, RPMI-8226
Method: as §1, §2

[3] = system: K562; test: Inhibition of tumor cell proliferation, CellTiter-Glo, K562
Method: as §1, §2

[4] = system: A549; test: Inhibition of tumor cell proliferation, CellTiter-Glo, A549
Method: as §1, §2

[5] = system: MDA-MB-453; test: Inhibition of tumor cell proliferation, CellTiter-Glo, MDA-MB-453
Method: as §1, §2

[6] = system: BxPC-3; test: Inhibition of tumor cell proliferation, CellTiter-Glo, BxPC-3
Method: as §1, §2

SMILES	Inhibitory activity against proliferation (cell survival rate) SU-DHL6 [1]	Inhibitory activity against proliferation (cell survival rate) RPMI-8226 [2]	Inhibitory activity against proliferation (cell survival rate) K562 [3]	Inhibitory activity against proliferation (cell survival rate) A549 [4]	Inhibitory activity against proliferation (cell survival rate) MDA-MB-453 [5]	Inhibitory activity against proliferation (cell survival rate) BxPC-3 [6]
O=C1CCC(N2C(=O)c3cccc(NC=C4C(=O)CC(c5ccccc5)CC4=O)c3C2=O)C(=O)N1 (centres unmarked) [Compound 2]	+++ (survival rate (%)≤30)	++ (30<survival rate (%)≤60)	+++ (survival rate (%)≤30)	++ (30<survival rate (%)≤60)	+ (60≤survival rate (%)<90)	+ (60≤survival rate (%)<90)
Cc1ccccc1C1CC(=O)C(=CNc2cccc3c2CN(C2CCC(=O)NC2=O)C3=O)C(=O)C1 (centres unmarked) [Compound 4]	+ (60≤survival rate (%)<90)	+++ (survival rate (%)≤30)	++ (30<survival rate (%)≤60)	+ (60≤survival rate (%)<90)	+ (60≤survival rate (%)<90)	+ (60≤survival rate (%)<90)
O=C1CCC(N2Cc3cc(NC=C4C(=O)CC(c5ccccc5)CC4=O)ccc3C2=O)C(=O)N1 (centres unmarked) [Compound 8]	+ (60≤survival rate (%)<90)	++ (30<survival rate (%)≤60)	++ (30<survival rate (%)≤60)	++ (30<survival rate (%)≤60)	+ (60≤survival rate (%)<90)	++ (30<survival rate (%)≤60)
O=C1CCC(N2C(=O)c3ccc(NC=C4C(=O)CC(c5ccccc5)CC4=O)cc3C2=O)C(=O)N1 (centres unmarked) [Compound 9]	+ (60≤survival rate (%)<90)	++ (30<survival rate (%)≤60)	++ (30<survival rate (%)≤60)	++ (30<survival rate (%)≤60)	+ (60≤survival rate (%)<90)	++ (30<survival rate (%)≤60)
O=C1CCC(N2Cc3ccc(NC=C4C(=O)CC(c5ccccc5)CC4=O)cc3C2=O)C(=O)N1 (centres unmarked) [Compound 10]	+ (60≤survival rate (%)<90)	++ (30<survival rate (%)≤60)	++ (30<survival rate (%)≤60)	+ (60≤survival rate (%)<90)	+ (60≤survival rate (%)<90)	++ (30<survival rate (%)≤60)
O=C1CCC(N2Cc3c(NC=C4C(=O)CC(C5CCCCC5)CC4=O)cccc3C2=O)C(=O)N1 (centres unmarked) [Compound 131]	+ (60≤survival rate (%)<90)	+++ (survival rate (%)≤30)	++ (30<survival rate (%)≤60)		+++ (survival rate (%)≤30)	+ (60≤survival rate (%)<90)
